In patent US20120220590A1, “NOVEL COMPOUNDS AS MODULATORS OF GLUCOCORTICOID RECEPTORS” (priority 2009, published 2012) one finds inhibition data, which are given here for 19 molecules.

Experiment [1] has as its system LPS-induced IL-6 secretion in U 937 cells. Description: Modulation of proinflammatory cytokine production in U 937 cells (transrepression): IL-6. Type of experiment: cell-based. Particulars: Homo sapiens, U 937 cells stimulated with 5 μg/mL LPS, ELISA; for inhibition at 0.1 µM: 0.1 μM test compound; for inhibition at 1 µM: 1 μM test compound. The protocol: (§1) VI) Modulation of Proinflammatory Cytokine Production in U 937 Cells (Determination of Transrepression)
(§2) Testing of compounds in GR-mediated inhibition of LPS-induced TNFα, IL-1β, and IL-6 secretion in U 937 cells.
(§3) Differentiated U 937 cells are incubated for 2 days in RPMI1640 medium containing 10% CCS (charcoal treated calf serum). The cells are transferred to 96 well plates and stimulated with 5 μg/mL LPS (dissolved in PBS) in the presence or absence of dexamethasone or test compound (dissolved in DMSO, final concentration 0.2%). Control cells are treated with 0.2% DMSO. After required incubation periods, proinflammatory cytokine(s) concentrations in the cell supernatant are measured by ELISA, using the “BD OptEIA™ Set human TNF, BD OptEIA™ Set human IL-6, BD OptEIA™ Set human IL-1β.
(§4) TNF α inhibition induced by Dexamethasone at 10 nM concentration was considered as 100% and % inhibition of the test NCE was determined as compared to Dexamethasone. Dose-response curves are calculated by fitting to a non-linear 4-parameter logistic model, and absolute EC50 (or IC50) values for the determination of dissociation are derived from these curves and the corresponding curve for dexamethasone on the same experimental occasion.
On the technique in general: In an ELISA, binding on a coated surface is turned into a signal by an enzyme label.

In experiment [2] the test system is LPS-induced TNFα secretion in U 937 cells. The experiment can be described thus: Modulation of proinflammatory cytokine production in U 937 cells (transrepression): TNFα. Type of experiment: cell-based. Particulars: Homo sapiens, U 937 cells stimulated with 5 μg/mL LPS, inhibition by Dexamethasone at 10 nM considered as 100%, read-out: % TNF α Inhibition; for inhibition at 0.1 µM: 0.1 μM test compound; for inhibition at 1 µM: 1 μM test compound. The protocol:
as §1, §2, §3, §4

Each structure is given as a SMILES string.

In the case of `CNC(=O)c1cc(OCCc2cccnc2)cc(Oc2ccc(CN(Cc3ccc(C#N)cc3)c3cccc(NS(C)(=O)=O)c3C)cc2)c1` [Example 74, 3-(4-(((4-cyanobenzyl)(2-methyl-3-(methylsulfonamido)phenyl)amino)methyl)phenoxy)-N-methyl-5-(2-(pyridin-3-yl)ethoxy)benzamide], in experiment [1], the inhibition at 0.1 µM came to 100% and the inhibition at 1 µM was 100%. Also, in experiment [2], the inhibition at 0.1 µM is 90.4% and the inhibition at 1 µM was determined as 100%.

As to `Cc1c(NS(C)(=O)=O)cccc1N(Cc1ccc(C#N)cc1)Cc1ccc(Oc2cccc(OCCc3cccs3)c2)cc1` [Example 35, N-(3-((4-cyanobenzyl)(4-(3-(2-(thiophen-2-yl)ethoxy)phenoxy)benzyl)amino)-2-methylphenyl)methanesulfonamide], the values for the inhibition at 0.1 µM in experiment [1] and in experiment [2] were 28% and 41.8%, respectively. Besides, the results for the inhibition at 1 µM in experiment [1] and in experiment [2] were 54% and 83.4%, respectively.

With `Cc1c(NS(C)(=O)=O)cccc1N(Cc1ccc(C#N)cc1)Cc1ccc(Oc2cc(C#N)cc(OCCc3cccnc3)c2)cc1` [Example 84, N-(3-((4-(3-cyano-5-(2-(pyridin-3-yl)ethoxy)phenoxy)benzyl)(4-cyanobenzyl)amino)-2-methylphenyl)methanesulfonamide], in experiment [1], the inhibition at 0.1 µM worked out at 95% and the inhibition at 1 µM came out at 94.9%. In experiment [2], the inhibition at 0.1 µM was determined as 94.6% and the inhibition at 1 µM was 93.7%.

In the case of `Cc1c(NS(C)(=O)=O)cccc1N(Cc1ccc(C#N)cc1)Cc1ccc(Oc2cc(OCCc3cccnc3)cc(C(N)=O)c2)cc1` [Example 75, 3-(4-(((4-cyanobenzyl)(2-methyl-3-(methylsulfonamido)phenyl)amino)methyl)phenoxy)-5-(2-(pyridin-3-yl)ethoxy)benzamide], in experiment [1], the inhibition at 0.1 µM was 98.2% and the inhibition at 1 µM was found to be 100%. In experiment [2], the inhibition at 0.1 µM was 75.3% and the inhibition at 1 µM was determined as 100%.

In the case of `Cc1c(NS(C)(=O)=O)cccc1N(Cc1ccc(C#N)cc1)Cc1ccc(Oc2cc(CO)cc(OCc3cccnc3)c2)cc1` [Example 79, N-(3-((4-cyanobenzyl)(4-(3-(hydroxymethyl)-5-(pyridin-3-ylmethoxy)phenoxy)benzyl)amino)-2-methylphenyl)methanesulfonamide], in experiment [1], the inhibition at 0.1 µM worked out at 97% and the inhibition at 1 µM was 97%. In experiment [2], the inhibition at 0.1 µM came out at 87.7% and the inhibition at 1 µM turned out to be 88.2%.

Take `Cc1c(NS(C)(=O)=O)cccc1N(Cc1ccc(Oc2cc(CO)cc(OCC3CCOC3)c2)cc1)Cc1cccc(C#N)c1` (centres unmarked) [Example 80, N-(3-((3-cyanobenzyl)(4-(3-(hydroxymethyl)-5-((tetrahydrofuran-3-yl)methoxy)phenoxy)benzyl)amino)-2-methylphenyl)methanesulfonamide]: in experiment [2], the inhibition at 0.1 µM is 84.1% and the inhibition at 1 µM was determined as 86.5%.

`CCS(=O)(=O)Nc1cccc(N(Cc2ccc(C#N)cc2)Cc2ccc(Oc3cc(CO)cc(OCc4cccnc4)c3)cc2)c1C` [Example 85, N-(3-((4-cyanobenzyl)(4-(3-(hydroxymethyl)-5-(pyridin-3-ylmethoxy)phenoxy)benzyl)amino)-2-methylphenyl)ethanesulfonamide]: in experiment [2], the inhibition at 0.1 µM amounted to 88.5% and the inhibition at 1 µM stood at 91.2%.

As for `Cc1c(NS(C)(=O)=O)cccc1N(Cc1ccc(C#N)cc1)Cc1ccc(Oc2cccc(OCC3CCOC3)c2)cc1` (centres unmarked) [Example 58, N-(3-((4-cyanobenzyl)(4-(3-((tetrahydrofuran-3-yl)methoxy)phenoxy)benzyl)amino)-2-methylphenyl)methanesulfonamide], the inhibition at 0.1 µM in experiment [1] was determined as 45%; in experiment [2] it was 13.1%. The inhibition at 1 µM is 76% in experiment [1] and 55% in experiment [2].

With `CCS(=O)(=O)Nc1cccc(N(Cc2ccc(Oc3cc(CO)cc(OCC4CCOC4)c3)cc2)Cc2cccc(C#N)c2)c1C` (centres unmarked) [Example 86, N-(3-((3-cyanobenzyl)(4-(3-(hydroxymethyl)-5-((tetrahydrofuran-3-yl)methoxy)phenoxy)benzyl)amino)-2-methylphenyl)ethanesulfonamide], in experiment [2], the inhibition at 0.1 µM amounted to 95.5% and the inhibition at 1 µM turned out to be 95.6%.

`Cc1c(NS(C)(=O)=O)cccc1N(Cc1ccc(C#N)cc1)Cc1ccc(Oc2cc(CO)cc(OCC3CCOC3)c2)cc1` (centres unmarked) [Example 81, N-(3-((4-cyanobenzyl)(4-(3-(hydroxymethyl)-5-((tetrahydrofuran-3-yl)methoxy)phenoxy)benzyl)amino)-2-methylphenyl)methanesulfonamide]: in experiment [2], the inhibition at 0.1 µM was found to be 88.9% and the inhibition at 1 µM was determined as 88.2%.

Take `Cc1c(NS(C)(=O)=O)cccc1N(Cc1ccc(Oc2cccc(OCCc3cccnc3)c2)cc1)Cc1cccc(C#N)c1` [Example 62, N-(3-((3-cyanobenzyl)(4-(3-(2-(pyridin-3-yl)ethoxy)phenoxy)benzyl)amino)-2-methylphenyl)methanesulfonamide]: in experiment [1], the inhibition at 0.1 µM was found to be 68.4% and the inhibition at 1 µM is 90.8%. In addition, in experiment [2], the inhibition at 0.1 µM was found to be 52.6% and the inhibition at 1 µM worked out at 83.7%.

As for `CCS(=O)(=O)Nc1cccc(N(Cc2ccc(C#N)cc2)Cc2ccc(Oc3cccc(OCc4ccoc4)c3)cc2)c1C` [Example 20, N-(3-((4-cyanobenzyl)(4-(3-(furan-3-ylmethoxy)phenoxy)benzyl)amino)-2-methylphenyl)ethanesulfonamide], in experiment [1], the inhibition at 0.1 µM is 92.2% and the inhibition at 1 µM is 97.9%. Besides, in experiment [2], the inhibition at 0.1 µM amounted to 88.9% and the inhibition at 1 µM was 93.6%.

For `Cc1c(NS(C)(=O)=O)cccc1N(Cc1ccc(Oc2cccc(OCC3CCOC3)c2)cc1)Cc1cccc(C#N)c1` (centres unmarked) [Example 55, N-(3-((3-cyanobenzyl)(4-(3-((tetrahydrofuran-3-yl)methoxy)phenoxy)benzyl)amino)-2-methylphenyl)methanesulfonamide], the inhibition at 0.1 µM in experiment [1] was 55%; in experiment [2], 1.54%. For the same molecule, the inhibition at 1 µM in experiment [1] was 76%; in experiment [2], -1.12%.

Turning to `Cc1c(NS(C)(=O)=O)cccc1N(Cc1ccccc1)Cc1ccc(Oc2cccc(OCCc3cccnc3)c2)cc1` [Example 78, N-(3-(benzyl(4-(3-(2-(pyridin-3-yl)ethoxy)phenoxy)benzyl)amino)-2-methylphenyl)methanesulfonamide], in experiment [1], the inhibition at 0.1 µM amounted to 62% and the inhibition at 1 µM is 74%. In experiment [2], the inhibition at 0.1 µM is 67.9% and the inhibition at 1 µM was 83.9%.

Turning to `Cc1c(NS(C)(=O)=O)cccc1N(Cc1ccc(Oc2cc(OCCc3cccnc3)cc(C(N)=O)c2)cc1)Cc1ccc(C#N)c(F)c1` [Example 83, 3-(4-(((4-cyano-3-fluorobenzyl)(2-methyl-3-(methylsulfonamido)phenyl)amino)methyl)phenoxy)-5-(2-(pyridin-3-yl)ethoxy)benzamide], in experiment [1], the inhibition at 0.1 µM came out at 95.7% and the inhibition at 1 µM is 95.1%. Further, in experiment [2], the inhibition at 0.1 µM worked out at 93.4% and the inhibition at 1 µM is 94.5%.

As to `Cc1c(NS(C)(=O)=O)cccc1N(Cc1ccc(C#N)cc1)Cc1ccc(Oc2cc(CO)cc(OCCc3cccnc3)c2)cc1` [Example 76, N-(3-((4-cyanobenzyl)(4-(3-(hydroxymethyl)-5-(2-(pyridin-3-yl)ethoxy)phenoxy)benzyl)amino)-2-methylphenyl)methanesulfonamide], the inhibition at 0.1 µM was found to be 85.7% in experiment [1] and 87.6% in experiment [2]. Also, the inhibition at 1 µM in experiment [1] came to 88.8%; in experiment [2] it was 86.2%.

Take `CCS(=O)(=O)Nc1cccc(N(Cc2ccc(Oc3cccc(OCC4CCOC4)c3)cc2)Cc2cccc(C#N)c2)c1C` (centres unmarked) [Example 16, N-(3-((3-cyanobenzyl)(4-(3-((tetrahydrofuran-3-yl)methoxy)phenoxy)benzyl)amino)-2-methylphenyl)ethanesulfonamide]: the results for the inhibition at 0.1 µM in experiment [1] and in experiment [2] were 62% and 63.2%, respectively. In addition, the inhibition at 1 µM in experiment [1] turned out to be 81%; in experiment [2], 87.4%.

On to `Cc1c(NS(C)(=O)=O)cccc1N(Cc1ccc(C#N)cc1)Cc1ccc(Oc2cc(C#N)cc(OCC3CCOC3)c2)cc1` (centres unmarked) [Example 82, N-(3-((4-(3-cyano-5-((tetrahydrofuran-3-yl)methoxy)phenoxy)benzyl)(4-cyanobenzyl)amino)-2-methylphenyl)methanesulfonamide], for which, in experiment [1], the inhibition at 0.1 µM turned out to be 60% and the inhibition at 1 µM stood at 83%. In experiment [2], the inhibition at 0.1 µM amounted to 50% and the inhibition at 1 µM amounted to 71.1%.

As to `CCS(=O)(=O)Nc1cccc(N(Cc2ccc(Oc3cccc(OCCc4cccnc4)c3)cc2)Cc2cccc(C#N)c2)c1C` [Example 60, N-(3-((3-cyanobenzyl)(4-(3-(2-(pyridin-3-yl)ethoxy)phenoxy)benzyl)amino)-2-methylphenyl)ethanesulfonamide], in experiment [1], the inhibition at 0.1 µM worked out at 90% and the inhibition at 1 µM was 91.7%. Moreover, in experiment [2], the inhibition at 0.1 µM was 95.1% and the inhibition at 1 µM came out at 96.3%.

Broadly, the inhibition is the change of the read-out against control, counted positive when it falls.
